Assay results from PubChem BioAssay (NCI).
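All cell lines were grown in 96-well plates and treated with compound for 48 hours. GI50 = concentration required for 50% inhibition of growth. TGI: concentration producing complete growth inhibition.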

Tests used:
Test in all cases: inhibition of tumour cell growth, NCI panel, 48 h
[1] = system: TK-10 renal
[2] = system: 786-0 renal
[3] = system: SK-MEL-2 melanoma
[4] = system: SK-OV-3 ovarian
[5] = system: NCI-H226 lung
[6] = system: U251 CNS
[7] = system: A549 NSCLC
[8] = system: COLO 205 colon
[9] = system: MALME-3M melanoma
[10] = system: SNB-75 CNS
[11] = system: IGROV1 ovarian
[12] = system: SK-MEL-28 melanoma
[13] = system: MOLT-4 leukemia
[14] = system: CCRF-CEM leukemia
[15] = system: HL-60(TB) leukemia
[16] = system: HCT-15 colon
[17] = system: OVCAR-3 ovarian
[18] = system: HT29 colon
[19] = system: T-47D breast
[20] = system: HCT-116 colon
[21] = system: LOX IMVI melanoma
[22] = system: HS 578T breast
[23] = system: SR leukemia
[24] = system: SN12C renal
[25] = system: SW-620 colon
[26] = system: PC-3 prostate
[27] = system: ACHN renal
[28] = system: HCC-2998 colon
[29] = system: KM12 colon
[30] = system: CAKI-1 renal
[31] = system: A498 renal
[32] = system: RPMI-8226 leukemia
[33] = system: NCI/ADR-RES ovarian
[34] = system: UACC-62 melanoma
[35] = system: K-562 leukemia
[36] = system: UACC-257 melanoma
[37] = system: MCF7 breast
[38] = system: SF-268 CNS
[39] = system: SNB-19 CNS
[40] = system: SF-539 CNS
[41] = system: EKVX NSCLC
[42] = system: NCI-H460 lung
[43] = system: SK-MEL-5 melanoma
[44] = system: UO-31 renal
[45] = system: RXF 393 renal
[46] = system: NCI-H522 lung
[47] = system: OVCAR-8 ovarian
[48] = system: OVCAR-4 ovarian
[49] = system: HOP-62 NSCLC
[50] = system: SF-295 CNS
[51] = system: DU-145 prostate
[52] = system: OVCAR-5 ovarian
[53] = system: HOP-92 NSCLC
[54] = system: BT-549 breast

Question: Which results are given for `COc1cc(C2=NNC(c3ccc(N(C)C)cc3)C2)cc(OC)c1OC` (stereo not drawn)?
Answer: GI50 [1]: 10.1 µM; TGI [1]: > 100 µM; GI50 [2]: 1930 nM; TGI [2]: > 100 µM; GI50 [3]: 3.18 µM; TGI [3]: 26.2 µM; GI50 [4]: 4.22 µM; TGI [4]: > 100 µM; GI50 [5]: 54.7 µM; TGI [5]: > 100 µM; GI50 [6]: 672 nM; TGI [6]: > 100 µM; GI50 [7]: 3.94 µM; TGI [7]: > 100 µM; GI50 [8]: 2390 nM; TGI [8]: 12.5 µM; GI50 [9]: 7.85 µM; TGI [9]: > 100 µM; GI50 [10]: 1020 nM; TGI [10]: > 100 µM; GI50 [11]: 546 nM; TGI [11]: 3.06 µM; GI50 [12]: 15.6 µM; TGI [12]: > 100 µM; GI50 [13]: 2810 nM; TGI [13]: 11.4 µM; GI50 [14]: 1620 nM; TGI [14]: 6.22 µM; GI50 [15]: 1620 nM; TGI [15]: 4.96 µM; GI50 [16]: 2480 nM; TGI [16]: > 100 µM; GI50 [17]: 6.07 µM; TGI [17]: > 100 µM; GI50 [18]: 667 nM; TGI [18]: > 100 µM; GI50 [19]: 19.8 µM; TGI [19]: > 100 µM; GI50 [20]: 2030 nM; TGI [20]: 19.7 µM; GI50 [21]: 7.18 µM; TGI [21]: > 100 µM; GI50 [22]: 2240 nM; TGI [22]: 5.96 µM; GI50 [23]: 250 nM; TGI [23]: 8.06 µM; GI50 [24]: 4.63 µM; TGI [24]: > 100 µM; GI50 [25]: 450 nM; TGI [25]: > 100 µM; GI50 [26]: 781 nM; TGI [26]: > 100 µM; GI50 [27]: 11.3 µM; TGI [27]: > 100 µM; GI50 [28]: 1400 nM; TGI [28]: 4.6 µM; GI50 [29]: 525 nM; TGI [29]: 12.4 µM; GI50 [30]: 2680 nM; TGI [30]: > 100 µM; GI50 [31]: 2870 nM; TGI [31]: 8.84 µM; GI50 [32]: 1710 nM; TGI [32]: 11.7 µM; GI50 [33]: 2200 nM; TGI [33]: > 100 µM; GI50 [34]: 4.37 µM; TGI [34]: > 100 µM; GI50 [35]: 406 nM; TGI [35]: 74.5 µM; GI50 [36]: 8.61 µM; TGI [36]: 47.4 µM; GI50 [37]: 433 nM; TGI [37]: > 100 µM; GI50 [38]: 2090 nM; TGI [38]: > 100 µM; GI50 [39]: 1820 nM; TGI [39]: > 100 µM; GI50 [40]: 560 nM; TGI [40]: 2890 nM; GI50 [41]: 2020 nM; TGI [41]: 6.02 µM; GI50 [42]: 1140 nM; TGI [42]: 6.83 µM; GI50 [43]: 2090 nM; TGI [43]: 7.15 µM; GI50 [44]: 4.75 µM; TGI [44]: 50.6 µM; GI50 [45]: 1200 nM; TGI [45]: 4.83 µM; GI50 [46]: 2000 nM; TGI [46]: 5.74 µM; GI50 [47]: 4.13 µM; TGI [47]: > 100 µM; GI50 [48]: 16.9 µM; TGI [48]: > 100 µM; GI50 [49]: 1130 nM; TGI [49]: > 100 µM; GI50 [50]: 249 nM; TGI [50]: 799 nM; GI50 [51]: 1880 nM; TGI [51]: 5.41 µM; GI50 [52]: 4.73 µM; TGI [52]: > 100 µM; GI50 [53]: 3.77 µM; TGI [53]: > 100 µM; GI50 [54]: 811 nM; TGI [54]: 10.3 µM
